Assay results: US10426745B2, “Polymeric metformin and its use as a therapeutic agent and as a delivery vehicle” (The University of North Carolina at Chapel Hill, priority 2015, dated 2019)

Experiments:
AMPKα = experiment: Western blot of tumor proteins: AMPKα phosphorylation; type: in vivo, mice; settings: H460 tumors, IV every other day
Experimental: (§1) FIG. 7A depicts Metformin and PolyMet inhibition of tumor growth by activation of AMPK, inhibiting the mTOR pathway; FIG. 7B depicts inducing autophagy and apoptosis mechanisms. Mice bearing H460 tumors were given IV injections every other day and analysis of tumor proteins was prepared 24 h after the second injection. Cells under autophagy were stained by LC3b antibody (red) and apoptosis of cells was indicated by TUNEL assay (green). Nuclei are stained blue. The percentage denotes the average percentage of LC3b positive cells (red) and the percentage of TUNEL positive cells (green), respectively. Five randomly selected microscopic fields were quantitatively analyzed on ImageJ. Data are mean±S.D. (n=5 per group).
(§2) H460 tumor-bearing mice were given IV injections every second day and mice were sacrificed 24 hours after the third injection. Protein per lane was separated by 4%-12% SDS-PAGE electrophoresis (Invitrogen) before being transferred to polyvinylidene difluoride (PVDF) membranes (Bio-Rad). The membranes were blocked for 1 h with 5% non fat dry milk (Bio-Rad) at room temperature and then incubated with antibodies overnight at 4° C. The membranes were washed 3 times and then incubated with a secondary antibody (1:4,000 dilution; Cell signal Inc.) at room temperature for 1 h. […]

LC3b = LC3b immunostaining of H460 tumors (autophagy); type: in vivo, mice; settings: vs other groups
Experimental: as §1

H460 tumor cells = experiment: TUNEL assay of in vivo tumor cell apoptosis; design: species or system mice; settings: H460 tumors after IV treatment
Experimental: as §1
FIG. 8 depicts in vitro and in vivo gene silencing effect of different LPH nanoparticles. […] Luciferase activities of cells were analyzed and normalized by protein. *p<0.05, **p<0.01, ***p<0.001. […] H460 tumor-bearing mice were injected intravenously every other day; FIG. 8B depicts tumor BCL2 protein levels after 2 injections were measured by western blot analysis; FIG. 8C depicts tumor volumes were measured every day; FIG. 8D depicts TUNEL staining in H460 tumor cells after treatment with siRNA in different formulations in vivo. […] Five randomly selected microscopic fields were quantitatively analyzed on ImageJ. […]

H460 tumor = experiment: H460 xenograft tumor growth / antitumor activity; type: in vivo, mice; settings: vs PBS and LPH-PEI groups; IV 0.4 mg/kg body weight every other day
Experimental: FIG. 6A depicts Metformin and PolyMet inhibit H460 tumor growth. PBS, metformin, LPH-PEI and LPH-PolyMet were administered intravenously every other day, and mice were sacrificed 24 hours after the final injection. In FIG. 6A, tumor volumes were measured every day; FIG. 6B depicts tumor weights were measured on day after final injection and compared with body weights to determine percentage of tumor burden; FIG. 6C depicts visual observations of the H460 tumor sizes in each treatment group at the end time point; (n=5 per group).
Female nude female mice and female CD1 mice that were 6-8 weeks old were used in the studies. Female nude mice were purchased from National Cancer Institute (Bethesda, Md.) and bred by the Division of Laboratory Animal Medicine (DLAM) at University of North Carolina at Chapel Hill. CD1 mice were purchased from Charles River Laboratories (Morrisville, N.C.). To establish the xenograft models, 5×10^6 cells in 100 μL of PBS were injected subcutaneously into the right flank of the mice.
Human NSCLC cells xenografts were used as previously described. H460 human lung cancer cells ([…]) were subcutaneously injected into the right flanks of female athymic nu/nu mice. […] Animal weight and tumor volumes were measured every other day. […]

mTOR = experiment: Western blot of tumor proteins: p-mTOR/mTOR; type: in vivo, mice; settings: H460 tumors; compared to the PBS and LPH-PEI
Experimental: as §1, §2

luciferase plasmid = experiment: pDNA transfection efficiency with luciferase plasmid; type: cell-based
Experimental: FIG. 10 depicts transfection efficiency of (A) L-PEI and L-PolyMet and (B) B-PEI and B-PolyMet at the indicated N/P ratios. Luciferase pDNA concentration was 0.5 μg/well in 96-well plate. Data are mean±S.D. (n=6 per group).

| transfection efficiency (luciferase plasmid) | Molecule | phosphorylation level of AMPKα relative to PBS group (AMPKα) | LC3b-associated red fluorescence (autophagy) (LC3b) | percent of apoptotic (TUNEL-positive) cells (H460 tumor cells) | inhibition of cancer progression (tumor growth) (H460 tumor) | reduction in p-mTOR/mTOR levels (mTOR) |
| --- | --- | --- | --- | --- | --- | --- |
|  | CN(C)C(=N)NC(=N)N [Metformin, N,N-dimethylimidodicarbonimidic diamide] | about 9 fold | higher | 18.8% | significant inhibition | 2.3 fold |
| did not help | protamine |  |  |  |  |  |
